Measured values from patent US11254720B2, “Methods and systems for designing and/or characterizing soluble lipidated ligand agents” (Tufts Medical Center, priority 2013, dated 2022).
Non-standard residues stand in square brackets, D forms with d. Residues, ends and D or L forms follow the SMILES beside them. *: point of attachment. PEG8 = NCCOCCOCCOCCOCCOCCOCCOCCOCCC(=O)O; Palmitoyl = CCCCCCCCCCCCCCCC(=O)*; Tic = O=C(O)[C@@H]1Cc2ccccc2CN1

Tests used:
Adult CD1 mice = assay: Chronic constriction injury neuropathic pain model, von Frey and acetone tests; format: in vivo, mouse; conditions: intrathecal 100 pmol, 1 week after nerve injury
Text: Intrathecal injection of 1-stable chem (100 pmol), 1 week after CCI, reduces CCI-induced mechanical hypersensitivity (panels A+C) and cold allodynia (panel E). Intrathecal injection of ResolvinE1 (RvE1)(100 pmol), 1 week after CCI, reduces CCI-induced mechanical hypersensitivity (panels B+D) and cold allodynia (panel F). BL=baseline before surgery.
Adult CD1 mice (male, 25-35 g) were used for behavioral studies. Mice were group-housed and kept under a 12-hour light/dark cycle. […]
Nerve injury-induced mechanical allodynia and hypersensitivity were assessed by von Frey hairs as previously described (see Xu et al., Resolvin E1 inhibits neuropathic pain and spinal cord microglial activation following peripheral nerve injury, 2013, J. Neuroimmune Pharmacol, 8: 37-41). […] The 50% paw withdrawal threshold (PWT) was determined using Dixon's up-down method. For paw withdrawal frequency (PWF), the same von Frey hair (0.16 g) was applied 10 times and the number of positive responses to the stimulations counted. A positive response was scored if the mouse sharply withdrew the paw or flinched upon removal of the stimulus. […] In brief, a drop of acetone was placed against the plantar paw of the mouse and the mouse's response monitored for the next 20 seconds. […]

Male FVB mice = assay: Ovalbumin sensitization and aerosol challenge model of allergic airway inflammation; format: in vivo, mouse; conditions: Day 18
Text: Representative photographs are taken at 20× magnification. (C) Lung tissue sections at Day 18 were obtained from fixed, paraffin-embedded lung tissue stained with hematoxylin and eosin. Representative photographs are taken at both 20× and 40×. (D) Total BALF cells and leukocyte subsets were quantified on Day 18 and compared between mice receiving DMSO or l-Stable Chem. Data are representative of the mean±S.E.M. from n=3-8 mice per group. Comparison of DMSO control to l-Stable Chem: *p<0.05.
Male FVB mice age 5-7 weeks (Charles River Laboratories) were housed under viral antibody-free conditions. Ovalbumin (OVA) sensitization and drug administration were performed as previously described with slight modifications. Briefly, mice were sensitized with intraperitoneal injection of 10 μg OVA (Grade III: Sigma) on days 0 and 7. On days 14, 15, 16, and 17, mice received a 25 minute aerosol challenge of 6% (wt/vol) OVA each day. On each of these days, 30 min prior to OVA challenge, mice were given 20 μL of lipidated stable chemerin (21 mM stock in DMSO diluted 1:100 in saline for a final concentration of 210 μM) by the intranasal route. Corresponding controls received DMSO diluted 1:100 in saline. On day 18 or 22, bronchoalveolar lavage fluid (BALF) was collected; animals were sacrificed for histological assessment. […] Cells in BALF were resuspended in PBS and counted with a hemocytometer; cytospins were done via cytocentrifugation (265 g; StatSpin). Cells from the cytospin were stained with Wright-Giemsa stain (Sigma) for quantification of leukocyte subsets. At least 200 cells were counted per slide. […] On the 5th day (corresponding to day 18), mice were sacrificed and BALF collected and analyzed as described above.
Given the high potency, stability, and wash resistance of the lipidated stable chemerin analog, the anti-inflammatory activity of this compound in vivo was examined. […] Markers of inflammation were assessed at day 18 (time course: FIG. 6A).

mouse CMKLR1 [1] = molecular target: T1, mouse CMKLR1 (Mus musculus, UniProt P97468); assay: SRE-luciferase reporter gene assay in transfected HEK293 cells
T1 sequence (P97468 1-371): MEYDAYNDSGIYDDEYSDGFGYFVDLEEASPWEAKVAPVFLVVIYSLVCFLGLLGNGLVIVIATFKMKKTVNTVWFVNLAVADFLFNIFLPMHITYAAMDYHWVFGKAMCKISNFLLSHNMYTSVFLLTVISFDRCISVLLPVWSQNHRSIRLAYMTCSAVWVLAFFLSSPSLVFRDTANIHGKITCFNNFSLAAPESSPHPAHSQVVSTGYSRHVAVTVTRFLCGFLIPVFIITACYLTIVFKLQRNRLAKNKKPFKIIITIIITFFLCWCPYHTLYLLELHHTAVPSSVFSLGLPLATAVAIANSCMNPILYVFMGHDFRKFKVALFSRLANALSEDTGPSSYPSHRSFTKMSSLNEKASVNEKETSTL
Procedure: (§1) Receptor-mediated signaling was assessed as previously described. Briefly, HEK293 cells were plated at a density of 6,000 cells/well into 96-well clear-bottom plates and grown to ˜80% confluence. […] Expression of Gq5i66V directs signaling of the Gαi-coupled chemerin receptor to stimulation of a Gαq-dependent SRE5x-Luc-PEST reporter gene. For experiments investigating the agonist function of soluble and lipidated peptides, tethered ligand cDNA was not included in the transfection mixture. Twenty four hours after transfection, cells were stimulated with or without peptide agonist for 4 hours in serum-free medium. […] Following ligand stimulation, the media was aspirated and luciferase activity measured using SteadyLite reagent and quantified using a TopCount NTX. A β-galactosidase assay was then performed following assessment of luminescence. Cleavage of 2-nitrophenyl β-D-galactopyranoside substrate was quantified after incubation of cell lysates at 37° C. for 30 to 60 minutes by measuring the optical density at 420 nm on a SpectraMax microplate reader. Luciferase reporter gene activities were normalized to corresponding β-galactosidase activity controls.
(§2) HEK293 cells were transiently transfected with cDNAs encoding i) human or mouse CMKLR1, ii) a SRE5x-Luc reporter gene, iii) a Gαq5i66V chimera, and iv) a β-galactosidase control. Twenty-four hours after transfection, cells were stimulated with ligand for 4 hours and luciferase activity determined as described in Experimental Procedures. Luciferase activity was normalized relative to the maximal value observed using saturating concentrations of the corresponding soluble ligand (=100%). […] As a next step, the effect of membrane anchoring on chemerin activity was examined. […] HEK293 cells were transiently transfected with cDNAs encoding i) various tethered ligands, ii) human or mouse CMKLR1, iii) a SRE5x-Luc reporter gene, iv) aGαq5i66V chimera, and v) a β-galactosidase control. Twenty-four hours after transfection, luciferase activity was determined as described in Experimental Procedures.
(§3) HEK293 cells were transiently transfected with cDNAs encoding i) 8 ng of various tethered ligands, ii) human or mouse CMKLR1, iii) a SRE5x-Luc reporter gene, iv) a Gαq5i66V chimera, and v) a β-galactosidase control. Twenty-four hours after transfection, luciferase activity was determined as described in Experimental Procedures.

[2] = system: HEK293 cells transfected with vector control (pcDNA1.1); assay: Luciferase reporter assay in cells transfected with vector control; format: cell-based, human; conditions: cells transfected with pcDNA1.1 vector control
Procedure: as §1

human CMKLR1 [3] = molecular target: T2, human CMKLR1 (Homo sapiens, UniProt Q99788); assay: Washout experiments (serial washes after 15 min ligand, luciferase readout)
T2 sequence (Q99788 1-373): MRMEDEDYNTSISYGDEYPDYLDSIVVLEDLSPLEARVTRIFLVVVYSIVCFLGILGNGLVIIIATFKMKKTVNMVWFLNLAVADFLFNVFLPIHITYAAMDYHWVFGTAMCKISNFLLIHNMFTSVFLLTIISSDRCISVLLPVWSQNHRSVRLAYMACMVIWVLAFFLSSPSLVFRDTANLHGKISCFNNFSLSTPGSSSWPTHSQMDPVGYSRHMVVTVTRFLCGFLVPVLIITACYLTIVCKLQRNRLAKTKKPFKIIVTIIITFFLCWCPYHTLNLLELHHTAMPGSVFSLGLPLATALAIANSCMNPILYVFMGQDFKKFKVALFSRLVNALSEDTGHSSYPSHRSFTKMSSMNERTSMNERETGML
Procedure: (§4) Agonist activity was compared with and without serial washings shortly after addition of ligand. Briefly, HEK293 cells were plated and transfected as described above with the addition of a poly-L-lysine plate pretreatment step to enhance cell adhesion. Twenty-four hours after transfection, cells were stimulated with increasing concentrations of agonist for 15 minutes at 37° C. Selected wells were washed three times with serum-free media. Plates were then incubated for an additional 4 hours. Receptor mediated signaling was assessed using a luciferase based assay as described above.
(§5) HEK293 cells were transiently transfected with cDNAs encoding i) human or mouse CMKLR1, ii) a SRE5x-Luc reporter gene, iii) a Gαq5i66V chimera, and iv) a β-galactosidase control. Twenty-four hours after transfection, cells were stimulated with increasing concentrations of various ligands for 15 minutes. Selected wells were then washed three times with serum-free media and plates were further incubated for 4 hours.

human CMKLR1 [4] = molecular target: T2, human CMKLR1; assay: SRE-luciferase reporter gene assay in transfected HEK293 cells; conditions: pEC50, Human CMKLR1, no wash; mean ± S.E.M.
Procedure: as §1, §2, §3

mouse CMKLR1 [5] = molecular target: T1, mouse CMKLR1; assay: Washout experiments (serial washes after 15 min ligand, luciferase readout)
Procedure: as §4, §5

[6] = three washes after 15 min ligand

EC50 (mouse CMKLR1 [1]; EC50 (nM), Mouse CMKLR1, no wash, HEK293 luciferase reporter): 2 nM
EC50 (mouse CMKLR1 [1]; pEC50, Mouse CMKLR1, no wash, mean ± S.E.M.): 2 nM
EC50 (human CMKLR1 [3]; pEC50, Human CMKLR1, + wash, washed three times after 15 min ligand, then 4 hours): 25.1 nM
Agonist activity after serial washes, human CMKLR1 (human CMKLR1 [3]; [6]): persisted despite washing
EC50 (human CMKLR1 [4]): 2.57 nM
EC50 (mouse CMKLR1 [5]; pEC50, Mouse CMKLR1, + wash, washed three times after 15 min ligand, then 4 hours): 11 nM
Agonist activity after serial washes, mouse CMKLR1 (mouse CMKLR1 [5]; [6]): persisted despite washing
SMILES: CCCCCCCCCCCCCCCC(=O)NCCOCCOCCOCCOCCOCCOCCOCCOCCC(=O)NCC(=O)NCC(=O)N[C@H](Cc1ccc(O)cc1)C(=O)N[C@@H](Cc1ccccc1)C(=O)N[C@@H](CC(C)C)C(=O)N1CCC[C@H]1C(=O)N[C@H](CO)C(=O)N[C@@H](CCC(N)=O)C(=O)N[C@@H](Cc1ccccc1)C(=O)N[C@H](C)C(=O)N1Cc2ccccc2C[C@H]1C(=O)N[C@@H](CO)C(=O)O [I-Stable Chem] ({Palmitoyl-PEG8}-GG[dY]FLP[dS]QF[dA][Tic]S-OH)
Duration of significant reduction of established mechanical and cold allodynia (Adult CD1 mice): greater than 24 hours
Lung inflammatory response (H+E staining) (Male FVB mice; in comparison to DMSO controls): Less leukocyte infiltration and fewer reactive bronchial epithelial cells
Number of eosinophils in bronchoalveolar lavage fluid (Male FVB mice; intranasal, 30 min prior to OVA challenge, versus DMSO): decreased
Airway epithelial mucus (PAS staining) (Male FVB mice; versus DMSO control): most pronounced attenuation of mucus metaplasia
Agonist activity without CMKLR1 expression [2]: no agonist activity
